Assay results published in publication PMC4340626, “Neuronal Expression of the Human Neuropeptide S Receptor NPSR1 Identifies NPS-Induced Calcium Signaling Pathways” (PLoS ONE, 2015).
“Also recorded” adds a separate entry of the source. Where a SMILES comes first, the peptide text is derived from it.

Assays:
STIM-mediated SOCE = conditions: HeLa cells overexpressing STIM1; ref [50]; cited from earlier work
Description: Store-operated calcium channels (SOCs) responsible for SOCE are known to be composed by the calcium release-activated calcium modulator 1 (ORAI) and members of the transient receptor potential type c (TRPC) channel families. Channel-activation is induced by interaction with the ER calcium sensor stromal interaction molecule (STIM).

SOCE [1] = experiment: SOCE blockers on slow component of NPSR1-evoked calcium signals; type: cell-based, mouse; conditions: NPS 500 nM
SOCE [2] = tested on: SOCE; parameters: method as in PMID 12149283, PMID 2173565, PMID 18285445, PMID 21541286; conditions: non-excitable cells and neurons; ref [36]–[38], [39]; cited from earlier work
[3] = tested on: ryanodine receptors (RyR); experiment: Ryanodine receptor contribution to NPS-evoked calcium signals; type: cell-based, mouse; conditions: NPS 500 nM, mean ± SD
NPSR1 [4] = conditions: cited from earlier work
NPSR1 [5] = experiment: NPSR1 antagonist SHA68 against NPS-evoked calcium signals in NPSR1-expressing hippocampus neurons; type: cell-based, human
[6] = tested on: voltage activated calcium channels (Cav); experiment: Cav blocker cocktail on NPS-evoked calcium signals; type: cell-based, mouse; conditions: NPS 500 nM, first application, 148 neurons; mean ± SD
IP3R = experiment: IP3 receptor antagonist 2-APB against NPS-evoked calcium signals; type: cell-based, mouse
[7] = biological target: T1, human neuropeptide S receptor (NPSR1) (Homo sapiens, UniProt Q6W5P4); experiment: Single-cell calcium imaging (Fluo4) of NPS-evoked calcium signals in hippocampus neurons expressing NPSR1-mCherry; type: cell-based
T1 construct: expressed in transfected cells; host or cells: primary hippocampal neurons of P0-P2 C57BL/6 mice, transduced with AAV6 AAV-NPSR1-TS-mCherry-ER (hSyn promoter)
T1 sequence (Q6W5P4 1-371): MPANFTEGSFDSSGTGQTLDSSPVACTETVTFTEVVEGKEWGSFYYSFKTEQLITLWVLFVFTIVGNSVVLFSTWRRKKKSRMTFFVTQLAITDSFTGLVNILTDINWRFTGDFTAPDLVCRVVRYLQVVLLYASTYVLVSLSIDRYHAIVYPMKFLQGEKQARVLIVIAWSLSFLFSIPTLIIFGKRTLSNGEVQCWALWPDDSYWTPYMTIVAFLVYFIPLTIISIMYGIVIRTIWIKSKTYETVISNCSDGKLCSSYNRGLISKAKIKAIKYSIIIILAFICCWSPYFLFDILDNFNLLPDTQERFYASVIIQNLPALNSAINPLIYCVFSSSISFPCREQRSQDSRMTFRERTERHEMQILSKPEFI

[8] = tested on: NPSR1-expressing hippocampus neurons, influx of extracellular calcium; experiment: NPS-evoked calcium signals in calcium-free solution / slow component (calcium influx); type: cell-based, mouse; conditions: NPS 500 nM, mean ± SD
[9] = tested on: store-operated calcium entry (SOCE); experiment: Store-operated calcium entry on re-addition of Ca2+ after NPS in calcium-free solution; type: cell-based, mouse; conditions: NPS 500 nM, n = 47 cells, mean ± SD
[10] = tested on: untransfected hippocampus neurons; experiment: Calcium imaging of NPS in untransfected hippocampus neurons (control); type: cell-based, mouse; conditions: NPS 500 nM, 936 untransfected neurons
[11] = tested on: Colo205 cells expressing NPSR1; conditions: cited from earlier work
Description: (§1) Despite these numerous biological functions, little is known about the molecular mechanisms underlying NPS receptor activity. […] However, the intracellular pathways downstream to NPSR1 activation have not been identified in deta ...

human NPSR1 variants = conditions: HEK293 or CHO cells; ref [1],[10],[23]–[25]; cited from earlier work
Description: as §1

SERCA-ATPases = experiment: SERCA inhibition with CPA: calcium leakage and effect on NPS-evoked calcium signals; type: cell-based, mouse
[12] = tested on: NPSR1-mediated calcium signals (action potentials suppressed); type: cell-based, mouse
[13] = tested on: transient receptor potential channel family; conditions: cited from earlier work
Description: In previous in vitro studies, NPSR1 has been expressed in HEK293 or CHO cells. These studies focused on comparing NPS and NPSR1 variants with respect to their Gαq and Gαs activity, i.e. their efficiency to induce intracellular calcium responses and cAMP production upon receptor stimulation, analyzing population responses from plate readers instead of confocal single-cell calcium imaging.

[14] = repeated NPS 500 nM, 675 s interval, 111 neurons, mean ± SD, ANOVA p = 0.0133

In the case of `COc1ccc(CCCOC(Cn2ccnc2)c2ccc(OC)cc2)cc1` (centres unmarked) [SKF96365], the “inhibition of STIM-mediated SOCE” value (STIM-mediated SOCE) is listed as “inhibit STIM-mediated SOCE”, the “effect on duration and amplitude of slow component of NPSR1-evoked calcium signals” value (SOCE [1]; ML-9 50 μM, SKF96365 15 μM) is listed as “consistently reduced the duration and amplitude of the slow component” and the “integral of response amplitude of slow component in presence of SKF96365” value (SOCE [1]; SKF96365 15 μM (300 s pre-incubation), 127 cells, mean ± SD) is listed as 30.42 ± 3.8 x 10^4 (arbitrary units). The “inhibition of SOCE” value (SOCE [2]) was “inhibit SOCE”.

With ryanodine the “normalized mean fluorescence amplitude evoked by NPS in presence of ryanodine” value ([3]; ryanodine 50 μM (300 s pre-incubation), 136 neurons, ANOVA p < 0.0001) was 0.51 ± 0.37 and the “amplitude of second NPS application normalized to the first, RyRs blocked” value ([3]; ryanodine 50 μM, t-test vs control p < 0.0001) was 0.24 ± 0.25.

With `COc1ccc2c(c1)CC[C@@H]1[C@@H]2CC[C@]2(C)[C@@H](NCCCCCCN3C(=O)C=CC3=O)CC[C@@H]12` [U73122] the “effect of U73122 on NPS-mediated calcium release” value (PLC) was “abolished NPS-mediated calcium release” and the “mean fluorescence amplitude when U73122 and NPS were co-applied” value (PLC) was 0.14 ± 0.14.

For `O=C(NCc1ccc(F)cc1)N1CCN2C(=O)OC(c3ccccc3)(c3ccccc3)C2C1` (centres unmarked) [SHA68, 3-oxo-1,1-diphenyl-tetrahydro-oxazolo[3,4-a]pyrazine-7-carboxylic acid 4-fluoro-benzylamide], the “effect on NPS-mediated calcium mobilization” value (NPSR1 [4]) is listed as “blocks NPS-mediated calcium mobilization”, the “effect of SHA68 on NPS-evoked Ca2+ signals” value (NPSR1 [5]) is listed as “NPS application failed to induce Ca^2+ signals in the same neurons; also recorded: reduced the effect of NPS to a level non-significantly different from baseline” and the “normalized mean fluorescence amplitude evoked by NPS after washout of SHA68” value (NPSR1 [5]) is listed as 1.2 ± 1.6. For the same compound, the “normalized mean fluorescence amplitude evoked by NPS in presence of SHA68” value (NPSR1 [5]) was 0.5 ± 0.7.

In the case of `CSCC[C@H](NC(=O)CNC(=O)[C@@H](NC(=O)CNC(=O)[C@@H](NC(=O)CNC(=O)[C@H](CC(N)=O)NC(=O)[C@H](CCCNC(=N)N)NC(=O)[C@H](Cc1ccccc1)NC(=O)[C@@H](N)CO)C(C)C)[C@@H](C)O)C(=O)N[C@@H](CCCCN)C(=O)N[C@@H](CCCCN)C(=O)N[C@H](C(=O)N[C@@H](CO)C(=O)N[C@@H](Cc1ccccc1)C(=O)N[C@@H](CCC(N)=O)C(=O)N[C@@H](CCCNC(=N)N)C(=O)N[C@@H](C)C(=O)N[C@@H](CCCCN)C(=O)N[C@@H](CO)C(=O)O)[C@@H](C)O` [NPS, neuropeptide S] (H-SFRNGVGTGMKKTSFQRAKS-OH; N-terminus and C-terminus assumed), the “integral of response amplitude during recovery phase, control conditions” value [6] was 36.2 ± 7.5 x 10^4 (arbitrary units), the “normalized mean fluorescence amplitude evoked by NPS, first application before 2-APB” value (IP3R; NPS 500 nM, 166 neurons, mean ± SD) was 3.86 ± 2.34 and the “increase in normalized mean fluorescence (f/f0) over baseline” value [7] was 3.5 ± 2.9. For the same compound, the “rise time of NPSR1-dependent calcium signal (5–95% of max)” value ([7]; NPS 500 nM, initial rapid component, mean ± SD) was 9.47 ± 5.77 s, the “decay time of NPSR1-dependent calcium signal (95–5% of max)” value ([7]; NPS 500 nM, slower recovery phase, mean ± SD) was 132.71 ± 94.11 s and the “normalized mean fluorescence amplitude, 1st application” value [7, 14] was 3.6 ± 3.1. For the same compound, the “normalized mean fluorescence amplitude, 2nd application” value [7, 14] was 3.2 ± 3.3, the “normalized mean fluorescence amplitude, 3rd application” value [7, 14] was 2.4 ± 2.3 and the “integral of response amplitude over time, slow component, control conditions” value ([8]; 3 mM CaCl2, 229 cells) was 36.6 ± 8.3 x 10^4 (arbitrary units). The “integral of response amplitude over time, slow component, Ca2+-free solution” value ([8]; Ca2+-free, 5 mM EGTA, 65 neurons, t-test p < 0.0001) was 23.4 ± 3.9 x 10^4 (arbitrary units), the “amplitude of initial fast component of NPS-evoked calcium signal, calcium-free conditions” value ([8]; nominally calcium-free, 5 mM EGTA, 65 neurons, t-test vs control p = 0.1054) was 2.9 ± 1.9 and the “integral of response amplitude of slow component, control conditions (no SOCE blocker)” value (SOCE [1]; 229 cells, mean ± SD) was 36.6 ± 8.3 x 10^4 (arbitrary units). For the same compound, the “normalized mean fluorescence amplitude, NPS before SHA68” value (NPSR1 [5]; NPS 250 nM, 204 neurons, mean ± SD) was 2.9 ± 1.8, the “integral of response amplitude after re-addition of Ca2+, NPS applied once again under Ca2+-free conditions” value ([9]; ANOVA p < 0.0001) was 5.9 ± 4.9 x 10^4 (arbitrary units) and the “integral of response amplitude after re-addition of Ca2+, first NPS application under calcium-free conditions” value ([9]; control without NPS 2.1 ± 3.2 x 10^4) was 14.8 ± 7.2 x 10^4 (arbitrary units). For the same compound, the “mean fluorescence amplitude evoked by NPS, first application before U73122” value (PLC) was 3.44 ± 1.27, the “calcium response to NPS in untransfected neurons” value [10] was “no increase in normalized mean fluorescence intensity could be detected; also recorded: calcium responses could not be detected” and the “normalized mean fluorescence amplitude evoked by NPS prior to ryanodine” value ([3]; 136 neurons) was 2.7 ± 1.48. The “normalized mean fluorescence amplitude, control recordings without ryanodine, first NPS application” value ([3]; 155 control neurons) was 2.35 ± 1.9, the “normalized mean fluorescence amplitude, control recordings without ryanodine, second NPS application” value ([3]; 155 control neurons) was 1.74 ± 1.4 and the “amplitude of second NPS application normalized to the first, control cells” value ([3]; no ryanodine) was 0.77 ± 0.35. For the same compound, the “cell proliferation and MAP kinase phosphorylation” value [11] was “dose-dependent stimulation of cell proliferation and MAP kinase phosphorylation”, the “calcium mobilization and cAMP accumulation” value (human NPSR1 variants) was “elicit calcium mobilization and cAMP accumulation” and the “mean fluorescence amplitude evoked by NPS before CPA” value (SERCA-ATPases; NPS 500 nM, 397 neurons, mean ± SD) was 4.4 ± 2.69.

With `CC(O)=C1C(=O)C2C3c4cccc5[nH]cc(c45)CC3C(C)(C)N2C1=O` (centres unmarked) [CPA, cyclopiaconic acid] the “normalized mean amplitude evoked by NPS after CPA” value (SERCA-ATPases; CPA 30 μM (500–650 s), NPS 500 nM, n = 397, mean ± SD, vs baseline p = 0.9992) was 0.27 ± 0.4, the “transient increase in cytosolic calcium evoked by CPA (fluorescence amplitude)” value (SERCA-ATPases; CPA 30 μM, 397 neurons, mean ± SD) was 1.6 ± 1.17 and the “effect of CPA on NPSR1-mediated calcium signals” value (SERCA-ATPases; CPA 30 μM, NPS 500 nM, n = 397, ANOVA p < 0.0001) was “abolished NPSR1-mediated calcium signals”.

For `NC1=N[C@H](O)[C@H]2[C@H]3O[C@]4(O)O[C@@H]([C@@H](O)[C@@]2(N1)[C@@H]4O)[C@]3(O)CO` [TTX, tetrodotoxin], the “effect of TTX on NPSR1-mediated calcium signals” value [12] was “not affected”.

In the case of 2-aminoethoxydiphenyl borate [2-APB], the “effect of 2-APB on responses to NPS” value (IP3R) was “prevented responses to NPS”, the “normalized mean fluorescence amplitude evoked by NPS after 2-APB washout” value (IP3R) was 2.2 ± 2.13 and the “normalized mean fluorescence amplitude evoked by NPS in presence of 2-APB” value (IP3R) was 0.39 ± 0.61. For the same compound, the “modulation of transient receptor potential channel family members” value [13] was “modulates several members of the transient receptor potential channel family”.
